Experimental findings from patent US4132723A, “Substituted phenyl- or cyclohex-1-en-1-yl-3,7-demethyl-nona-2,4,6-trienoic acids and derivatives thereof” (Hoffmann-La Roche Inc., priority 1973, dated 1979) are described below.

Molecules are shown by their SMILES.

One series deals with papillomas. As to the kind of experiment: papilloma test (tumors induced with dimethyl-benzanthracene and croton oil). Conditions: mice, intraperitoneal, 400 mg/kg/week, within 2 weeks. Format: in vivo. As for the experimental part: The polyene compounds of formula I are useful in the topical and systemic prophylaxis and treatment of benign and malignant neoplasias and premalignant lesions. The tumor-inhibiting activity of the polyene compounds of the invention is significant. […] The diameter of such papillomas in mice decreased by 54% within 2 weeks upon the intraperitoneal administration of 3,7-dimethyl-9-(4-methoxy-2,3,6-trimethyl-phenyl)-nona-2,4,6-trien-1-oic acid at a dosage of 400 mg/kg/week.

Series [1] can be described thus: acute toxicity in mice after intraperitoneal administration in rape oil. Conditions: mouse, in vivo, ip.

As a reminder, the LD50 is the dose expected to kill half of the subjects tested. The low end stands for greater toxicity, the high end for lower toxicity. Regarding `COc1cc(C)c(CC/C(C)=C/C=C/C(C)=C/C(=O)O)c(C)c1C` [3,7-dimethyl-9-(4-methoxy-2,3,6-trimethyl-phenyl)-nona-2,4,6-trien-1-oic acid], the “decrease in diameter of papillomas” value in the series with papillomas is 54%. In series [1], this compound had an LD50 of 1400 mg/kg, an LD50 at 24 h above 4000 mg/kg, an LD50 at 240 h of 1400 mg/kg and an LD50 at 480 h of 1400 mg/kg.
